Source: paper PMC10222839, “Development of Novel Small-Molecule Activators of Pyruvate Kinase Muscle Isozyme 2, PKM2, to Reduce Photoreceptor Apoptosis” (Pharmaceuticals, 2023)

How the values were obtained:
[1] = test system: cleaved caspase-8-positive cells in the retina; assay: Experimental retinal detachment, flow cytometry of cleaved caspase 8; assay type: in vivo; conditions: rat retinal detachment, highest dose tested (1 mM final vitreous), intravitreal, 3 days, versus DMSO
Text: Caspase activation, including caspase 8, increases 3 days status post experimental retinal detachment and has been validated to be a marker of photoreceptor apoptosis and the extent of retinal-detachment-induced photoreceptor cell death. Additionally, this caspase activation coincides with the peak of the terminal deoxynucleotidyl transferase dUTP nick end labeling (TUNEL) staining of photoreceptors, specifically after experimental retinal detachment in rodents. So, the detection and quantification of cleaved caspase 8 can be used as a marker of photoreceptor death after experimental retinal detachment and to assess the efficacy of neuroprotective agents. As such, different concentrations of compound 2 or its vehicle, DMSO, were injected at the time of retinal detachment creation in rats, and the retinas were harvested 3 days later to assess caspase 8 activation.
Detachments were created in rats as previously outlined. In brief, rats were anesthetized with ketamine (100 mg/mL) and xylazine (20 mg/mL), and their pupils were dilated as above. […]
After washing the cells in ice-cold PBS, the cells were fixed with 4% paraformaldehyde for 20 min at room temperature followed by two PBS washes via centrifugation at 300× g for 10 min at 4 °C. […] Data were analyzed with FCS Express software (De Novo Software, Ontario, CA, USA).

human recombinant PKM2 = target: T1, human recombinant PKM2 (Homo sapiens, UniProt P14618); assay: Pyruvate kinase enzyme-coupled (LDH/NADH) assay with recombinant PKM2; assay type: biochemical
T1 construct: purchased Sigma SAE0021
Procedure: Recombinant Enzyme. An enzyme-coupled assay that measures the depletion of NADH via absorbance at 340 nm and uses lactate dehydrogenase (LDH) was employed to determine the activity of pyruvate kinase (PK). To determine the AC50 (concentration of activator necessary to achieve half-maximal activation) of the different small molecules with PKM2, assays were conducted in a 96-well format using 200 μL/well assay volume with 10 nM human recombinant PKM2 (Sigma, St. Louis, MO, USA, Cat No. SAE0021) or PKM1 (Sigma, […], Cat No. SRP0415), differing concentrations of activator, 0.5 mM PEP, 1 mM ADP, 0.2 mM NADH, and 8 U of LDH in a buffer of 50 mM Tris-HCl (pH 7.4), 100 mM KCl, and 5 mM MgCl2 as previously described. A SPECTROstar Omega plate reader (BMG LABTECH Inc., Cary, NC, USA) monitored absorbance at 340 nm. The MARS software suite was utilized to determine initial velocities. Data were normalized to DMSO (dimethyl sulfoxide)-treated enzyme activity, as previously described.

T1 sequence (P14618 whole entry): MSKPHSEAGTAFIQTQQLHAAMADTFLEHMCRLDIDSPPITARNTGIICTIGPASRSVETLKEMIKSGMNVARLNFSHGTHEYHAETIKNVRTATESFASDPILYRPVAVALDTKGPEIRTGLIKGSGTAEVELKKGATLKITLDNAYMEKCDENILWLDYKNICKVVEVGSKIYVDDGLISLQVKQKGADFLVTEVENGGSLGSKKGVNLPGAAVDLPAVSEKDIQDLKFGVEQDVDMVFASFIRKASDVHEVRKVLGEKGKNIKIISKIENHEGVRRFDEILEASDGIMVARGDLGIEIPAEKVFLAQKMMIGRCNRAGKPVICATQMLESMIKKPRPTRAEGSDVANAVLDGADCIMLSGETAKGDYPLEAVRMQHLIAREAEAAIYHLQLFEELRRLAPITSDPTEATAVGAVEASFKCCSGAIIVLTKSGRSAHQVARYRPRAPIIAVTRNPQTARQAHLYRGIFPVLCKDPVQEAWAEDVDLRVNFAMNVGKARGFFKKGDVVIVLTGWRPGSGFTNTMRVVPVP

## Cn1c2cc([S+](C)[O-])ccc2c2cnn(Cc3cccc(N)c3)c(=O)c21 (stereo not drawn) [Compound 2]
[1]
  percentage of cleaved caspase-8-positive cells in the retina: statistically significantly reduced
Human recombinant PKM2; recombinant human PKM2, n = 3, best-fit value ± std. error
  AC50: 50 ± 12 nM
Human recombinant PKM2; recombinant human PKM2, n = 3, normalized to DMSO-treated enzyme, read-out: Recombinant PKM2 Max Activation
  Emax: 292 ± 20%
